According to PubChem BioAssay (NCI):
Where “and” joins values, the source holds several entries; their conditions need not be identical. Identical values can stand only once.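 The compound was tested at five concentrations on cells cultured in 96-well plates, with a 48-hour exposure period. GI50 = concentration required for 50% inhibition of growth. Definition used: TGI = concentration required for complete inhibition of growth.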

Legend:
Test in all cases: NCI anticancer screen, dose series, 48 h
SW-620 colon = test system: SW-620 colon
K-562 leukemia = test system: K-562 leukemia
SF-268 CNS = test system: SF-268 CNS
HOP-62 NSCLC = test system: HOP-62 NSCLC
RXF 393 renal = test system: RXF 393 renal
NCI-H522 lung = test system: NCI-H522 lung
UACC-62 melanoma = test system: UACC-62 melanoma
U251 CNS = test system: U251 CNS
MALME-3M melanoma = test system: MALME-3M melanoma
HOP-92 NSCLC = test system: HOP-92 NSCLC

SMILES	TGI (SW-620 colon) [µM]	TGI (K-562 leukemia) [µM]	TGI (SF-268 CNS) [µM]	TGI (HOP-62 NSCLC) [µM]	TGI (RXF 393 renal) [µM]	TGI (NCI-H522 lung) [µM]	TGI (UACC-62 melanoma) [µM]	TGI (U251 CNS) [µM]	TGI (MALME-3M melanoma) [µM]	TGI (HOP-92 NSCLC)	GI50 (K-562 leukemia) [µM]	GI50 (HOP-92 NSCLC) [µM]	GI50 (U251 CNS) [µM]	GI50 (NCI-H522 lung) [µM]	GI50 (UACC-62 melanoma) [µM]
O=c1c2[nH]cnc2n(-c2ccccc2)c(=S)n1-c1ccccc1	> 100	> 100	> 100	> 100	> 100	> 100	> 100	> 100							
C=CCOC(C)(C)C1=CCC(C)CC1 (stereo not given)	> 100		> 100	> 100	> 100	> 100	> 100	> 100	> 100	> 100 µM					
[C-]#[O+].[Cl][Sn]([Cl])[Cl].[Cl][Sn]([Cl])[Cl].[Pt].c1cnc2c(c1)ccc1cccnc12	> 100	> 48.3	> 79	45.3		> 100	> 22.4	15	> 100	51.5 µM					
Cc1ccc(S(=O)(=O)OCCN(CCOS(=O)(=O)c2ccc(C)cc2)c2ccc(C=O)cc2)cc1	> 100	> 100	> 100		33.2	34.1	39.5	71.5	97.3	75.3 µM					
O=C(/C=C\c1ccccc1)Oc1ccc(/C=C2\CCC/C(=C\c3ccc(OC(=O)/C=C\c4ccccc4)cc3)C2=O)cc1	> 100		> 100	> 100		> 100	> 100	> 100		> 100 µM					
COc1cc(C2c3cc4c(cc3[C@@H](Nc3ccc(F)cc3)C3COC[C@H]23)OCO4)cc(OC)c1O (stereo not given in full)	> 25	20.7	> 25	> 25		> 25		18							
Cc1cccc2c1nc1n2C(=O)c2ccccc2-1	> 100	> 100	> 100		> 100	> 100	> 100	> 100	> 100	> 100 µM					
COC(=O)c1c(O)ccc2c1c1c(n2Cc2ccc(OC)cc2)C(=O)c2ccccc2C1	> 100	> 100	> 100	> 100	79.9		> 100	> 100	> 100						
O=C(O)CCCc1ccc2c(c1)C(C(=O)O)CC2 (stereo not given)	> 100	> 100	> 100	> 100	> 100	> 100	> 100	> 100	> 100						
CCOC(=O)C(Cc1ccc(N=NN(C)C)cc1)NC(=O)CC1c2ccccc2-c2ccccc21 (stereo not given)	> 100	> 100	> 100	> 100		> 100	> 100	> 100	> 100						
COc1ccc(C(=CCC(C)C2CCC3[C@@H]4C(OC(C)=O)CC5CC(OC(C)=O)CC[C@]5(C)C4CC(OC(C)=O)[C@]23C)c2ccc(OC)cc2)cc1 (stereo not given in full)	> 100	> 100	> 100	> 100		> 100		> 100							
O=[N+]([O-])/C=C/c1cc(Cl)c(/C=C/[N+](=O)[O-])cc1Cl	6.06		16.5	31.8	3.14		4.34			6.77 µM					
O=C(OCCN=c1c2ccccc2ccc2ccccc12)c1cc([N+](=O)[O-])cc([N+](=O)[O-])c1	> 100	> 100	> 100	> 100	> 100		> 100	> 100	66.2	> 100 µM					
COc1ccc(O[C@H](CO)C[C@@H]2COC(C)(C)O2)cc1	> 100	> 100	> 100	> 100	> 100	> 100	> 100	> 100	> 100						
O=C(O)C1CCC(=O)N1C(=O)COc1cc(Cl)c(Cl)cc1Cl (stereo not given)	> 100		> 100			> 100	> 100	> 100		> 100 µM					
Cc1cc2nc(N3C(=O)/C(=C/Cc4ccco4)N=C3c3ccccc3)sc2cc1C	> 100	> 100	> 100	> 100	59.1		> 100	> 100		60.5 µM					
NC1CCC2(O)c3ccccc3C2C1 (stereo not given)	> 100	> 100	> 100	> 100	> 100	> 100	> 100	> 100	> 100						
CC[C@]1(c2ccc3c(c2)OCO3)C=[N+]([O-])O[C@H](OC2CCCC2(c2ccccc2)c2ccccc2)[C@@H]1OC(C)=O (stereo not given in full)	> 100	> 100	6.64	5.38	2.63	4.78	4.64	> 62.6		76.1 µM					

SMILES	TGI (SW-620 colon) [µM]	TGI (K-562 leukemia) [µM]	TGI (SF-268 CNS) [µM]	TGI (HOP-62 NSCLC) [µM]	TGI (RXF 393 renal) [µM]	TGI (NCI-H522 lung) [µM]	TGI (UACC-62 melanoma) [µM]	TGI (U251 CNS) [µM]	TGI (MALME-3M melanoma) [µM]	TGI (HOP-92 NSCLC)	GI50 (K-562 leukemia) [µM]	GI50 (HOP-92 NSCLC) [µM]	GI50 (U251 CNS) [µM]	GI50 (NCI-H522 lung) [µM]	GI50 (UACC-62 melanoma) [µM]
CC(=O)C1(C(=O)C(=[N+]=[N-])S(=O)(=O)c2ccccc2)CC1	> 100	> 100	> 100	> 100	> 100	> 100	> 100	> 100	> 100						
O=C(Nc1cccc2ccccc12)c1cc2ccccc2oc1=O	> 100	> 100	> 100	49.4	> 100		> 100	> 100	> 100	> 100 µM					
COc1cccc(/C=N/[N-]C(N)=O)c1[O-].[Cu+2].[OH3+]	27.3	45.2	32.9	44.3	36.2			19.7	28.8	8.9 µM and 15.5 µM	5.7	4.77	7.38		
CCOC(=O)C1C(c2ccc(Br)cc2)N(Cc2ccccc2)C(c2ccc(Br)cc2)C(C(=O)OC)S1(=O)=O (stereo not given)	> 100	> 100	> 100	> 100	> 100	> 100	> 100		> 100						
COc1cc2c(cc1OC)C1=C(C=O)c3ccc(OC)c(OC)c3C(O)N1CC2 (stereo not given)	> 100		> 100	> 100		75.2	29.4	45.9	53.9						
CC1CC(c2ccccc2)=Nc2ccccc2S1 (stereo not given)	> 100	> 100	> 100	> 100	> 100	> 100	> 100	> 100		> 100 µM					
O=S(Nc1ccccc1)c1ccc(Cl)cc1 (stereo not given)	> 100	> 100	82.9	> 100		> 100	90	> 100	> 100						
COc1ccc(S(=O)(=O)NC(CCC(=O)NC(N)=O)C(=O)NC(N)=O)cc1 (stereo not given)	> 100	> 100		> 100		> 100	> 100	> 100	> 100	> 100 µM					
NC(=O)CSc1nc2ccccc2c(=O)n1N	> 100	> 100	> 100		> 100	> 100	> 100	> 100	> 100	> 100 µM					
COc1ccc2oc(=O)c(-c3cc4c(c(C)n3)c(=O)oc3ccc(OC)cc34)cc2c1	> 100	> 100	> 100	> 100	> 100	> 100	> 100	> 100		> 100 µM					
COCOC1CCCC[C@@]1(OCCOCCO[C@@]1(c2ccccc2)CCCC[C@H]1OCOC)c1ccccc1 (stereo not given in full)	> 100	> 100	> 100	> 100	> 100	> 100	> 100	> 100	> 100						
Nc1c(C(=O)O)c2ccc([N+](=O)[O-])cc2c(=O)n1-c1nc2ccccc2s1	> 100	> 100	> 100	> 100	> 100	> 100	> 100	> 100	> 100						
Cn1c(CO)ccc1-c1ccc(-c2ccc(CO)[se]2)[se]1	> 100	98.5	> 100	40.8	> 100	> 86.3	31.5	24.4	17.7						
CCCCCCCCCCCCCCCCNc1nc(=O)n(C2OC(C)C(O)C2O)cc1F (stereo not given)	46.8		44.5	33.8	44.8	39	29	54.4	40.7	45.7 µM					
COCc1cc2c(s1)C(=O)C1=C(C2=O)C2(C=C(Br)C(=O)C(Br)=C2)CCN1	10.6	9.32	17.8		6.94	7.31	3.08	23.7	2.23	15.1 µM					
CCOC(=O)CNC(=O)c1[nH]cnc1/N=N/N(C)C	> 100	> 100	> 100	> 100		> 100	> 100	> 100	> 100						
NCCCNc1nc2ccccc2c2c(=O)c3cc(Cl)ccc3sc12						3.14	3.16			3.35 µM		1.28		1.66	1.67
